In this test the target is PDE10A (Homo sapiens (Human), UniProt Q9Y233). The experiment in a line: PDE10A inhibition assay. The format is biochemical. As for the experimental part: Active PDE10A enzyme is prepared in a number of ways for use in PDE assays (Loughney, K. et al. Gene 1999, 234, 109-117; Fujishige, K. et al. Eur J. Biochem. 1999, 266, 1118-1127 and Soderling, S. et al. Proc. Natl. Acad. Sci. 1999, 96, 7071-7076). PDE10A can be expressed as full-length proteins or as truncated proteins, as long as they express the catalytic domain. PDE10A can be prepared in different cell types, for example insect cells or E. coli. An example of a method to obtain catalytically active PDE10A is as follows: The catalytic domain of human PDE10A (amino acids 440-779 from the sequence with accession number NP 006652) is amplified from total human brain total RNA by standard RT-PCR and is cloned into the BamH1 and Xho1 sites of the pET28a vector (Novagen). Expression in coli is performed according to standard protocols. Briefly, the expression plasmids are transformed into the BL21(DE3) E. coli strain, and 50 mL cultures inoculated with the cells allowed to grow to an OD600 of 0.4-0.6 before protein expression is induced with 0.5 mM IPTG. Following induction, the cells are incubated overnight at room temperature, after which the cells are collected by centrifugation. Cells expressing PDE10A are resuspended in 12 mL (50 mM TRIS-HCl-pH8.0, 1 mM MgCl2 and protease inhibitors). The cells are lysed by sonication, and after all cells are lysed, TritonX100 is added according to Novagen protocols.
A PDE10A assay may for example, be performed as follows: The assay is performed in 60 uL samples containing a fixed amount of the relevant PDE enzyme (sufficient to convert 20-25% of the cyclic nucleotide substrate); a buffer (50 mM HEPES7.6; 10 mM MgCl2; 0.02% Tween20), 0.1 mg/ml BSA, 225 pCi of ^3H-labelled cyclic nucleotide substrate, tritium labeled cAMP to a final concentration of 5 nM and varying amounts of inhibitors. Reactions are initiated by addition of the cyclic nucleotide substrate, and reactions are allowed to proceed for one hr at room temperature before being terminated through mixing with 15 uL 8 mg/mL yttrium silicate SPA beads (Amersham). The beads are allowed to settle for one hr in the dark before the plates are counted in a Wallac 1450 Microbeta counter. The measured signal can be converted to activity relative to an uninhibited control (100%) and IC50 values can be calculated using the Xlfit extension to EXCEL.

32 compounds from US9096589B2, “Heteroaromatic phenylimidazole derivatives as PDE10A enzyme inhibitors” (H. Lundbeck A/S, priority 2009, dated 2015) can be followed below.

Structures are written as SMILES.

As usually defined, the IC50 is the concentration that inhibits the measured activity by half. Read a high IC50 as weaker potency in that assay.

Sequence of PDE10A (Q9Y233 716-1055): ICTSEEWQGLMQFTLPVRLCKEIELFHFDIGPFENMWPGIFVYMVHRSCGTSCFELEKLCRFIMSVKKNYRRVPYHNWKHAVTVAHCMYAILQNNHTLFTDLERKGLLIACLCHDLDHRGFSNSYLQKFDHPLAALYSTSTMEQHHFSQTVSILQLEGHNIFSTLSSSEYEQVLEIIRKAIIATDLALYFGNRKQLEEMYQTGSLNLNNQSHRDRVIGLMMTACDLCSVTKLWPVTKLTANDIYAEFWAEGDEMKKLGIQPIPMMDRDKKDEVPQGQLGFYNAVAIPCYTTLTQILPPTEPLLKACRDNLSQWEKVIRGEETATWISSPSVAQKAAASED

For the compound `Cc1cc(C)n2cc(CCc3nc(-c4cncs4)cn3CC(O)c3ccc(Cl)cc3)nc2n1` (centres unmarked) [1-(4-Chloro-phenyl)-2-{2-[2-(5,7-dimethyl-imidazo[1,2-a]pyrimidin-2-yl)-ethyl]-4-thiazol-5-yl-imidazol-1-yl}-ethanol], the IC50 came to 5.7 nM.
For `COCC(O)Cn1cc(-c2cccs2)nc1CCc1nc2cccc(C)n2n1` (centres unmarked) [1-Methoxy-3-{2-[2-(5-methyl-[1,2,4]triazolo[1,5-a]pyridin-2-yl)-ethyl]-4-thiophen-2-yl-imidazol-1-yl}-propan-2-ol] the value was 7.5 nM.
With `COCC(O)Cn1cc(-c2cccs2)nc1CCc1nc2c(C)cccn2n1` (centres unmarked) [1-Methoxy-3-{2-[2-(8-methyl-[1,2,4]triazolo[1,5-a]pyridin-2-yl)-ethyl]-4-thiophen-2-yl-imidazol-1-yl}-propan-2-ol] the figure was 8.4 nM; with `COCC(O)Cn1cc(-c2cncs2)nc1CCc1cn2c(C)cc(C)nc2n1` (centres unmarked) [1-{2-[2-(5,7-Dimethyl-imidazo[1,2-a]pyrimidin-2-yl)-ethyl]-4-thiazol-5-yl-imidazol-1-yl}-3-methoxy-propan-2-ol], 58 nM.
With `Cc1cc(C)n2cc(CCc3nc(-c4cccs4)cn3CC(O)CF)nc2n1` (centres unmarked) [1-{2-[2-(5,7-Dimethyl-imidazo[1,2-a]pyrimidin-2-yl)-ethyl]-4-thiophen-2-yl-imidazol-1-yl}-3-fluoro-propan-2-ol] the figure was 14 nM.
On to `COCC(O)Cn1cc(-c2cccs2)nc1CCc1cn2c(C)cc(C)nc2n1` (centres unmarked) [1-{2-[2-(5,7-Dimethyl-imidazo[1,2-a]pyrimidin-2-yl)-ethyl]-4-thiophen-2-yl-imidazol-1-yl}-3-methoxy-propan-2-ol], for which the midpoint of inhibition, the IC50, lay at 7.9 nM.
`Cc1cc(C)n2cc(CCc3nc(-c4cccs4)cn3C3CCCC3)nc2n1` [2-[2-(1-Cyclopentyl-4-thiophen-2-yl-1H-imidazol-2-yl)-ethyl]-5,7-dimethyl-imidazo[1,2-a]pyrimidine] gave an IC50 of 46 nM. This IC50 lies about 5.8-fold higher than the previous one.
`Cc1cc(C)n2cc(CCc3nc(-c4cccs4)cn3CC(C)C)nc2n1` [2-[2-(1-Isobutyl-4-thiophen-2-yl-1H-imidazol-2-yl)-ethyl]-5,7-dimethyl-imidazo[1,2-a]pyrimidine]: it took 12 nM to reach half-maximal inhibition (IC50).
With `Cc1cc(C)n2cc(CCc3nc(-c4cccs4)cn3C(C)C)nc2n1` [2-[2-(1-Isopropyl-4-thiophen-2-yl-1H-imidazol-2-yl)-ethyl]-5,7-dimethyl-imidazo[1,2-a]pyrimidine] the figure was 160 nM; with `Cc1ncc(C)n2nc(CCc3nc(-c4ccoc4)cn3C)nc12` [2-[2-(4-Furan-3-yl-1-methyl-1H-imidazol-2-yl)-ethyl]-5,8-dimethyl-[1,2,4]triazolo[1,5-a]pyrazine], 2.9 nM; with `COc1ccc(C)n2nc(CCc3nc(-c4ccoc4)cn3C)nc12` [2-[2-(4-Furan-3-yl-1-methyl-1H-imidazol-2-yl)-ethyl]-8-methoxy-5-methyl-[1,2,4]triazolo[1,5-a]pyridine], 4 nM.
`Cc1cc(C)n2cc(/C=C/c3nc(-c4ccco4)cn3C)nc2n1` [2-[(E)-2-(4-Furan-2-yl-1-methyl-1H-imidazol-2-yl)-vinyl]-5,7-dimethyl-imidazo[1,2-a]pyrimidine] came in with an IC50 of 25 nM.
Turning to `Cc1cc(C)n2cc(/C=C/c3nc(-c4ccoc4)cn3C)nc2n1` [2-[(E)-2-(4-Furan-3-yl-1-methyl-1H-imidazol-2-yl)-vinyl]-5,7-dimethyl-imidazo[1,2-a]pyrimidine], inhibition was half-maximal at 140 nM (IC50).
For the compound `COc1cccn2nc(/C=C/c3nc(-c4ccoc4)cn3C)nc12` [2-[(E)-2-(4-Furan-3-yl-1-methyl-1H-imidazol-2-yl)-vinyl]-8-methoxy-[1,2,4]triazolo[1,5-a]pyridine], the IC50 was 47 nM. This IC50 is about 3-fold lower than that of the compound before.
With `COCCn1cc(-c2cncs2)nc1CCc1cn2c(C)cc(C)nc2n1` [2-{2-[1-(2-Methoxy-ethyl)-4-thiazol-5-yl-1H-imidazol-2-yl]-ethyl}-5,7-dimethyl-imidazo[1,2-a]pyrimidine] the figure was 210 nM.
As to `COCCn1cc(-c2cccs2)nc1CCc1cn2c(C)cc(C)nc2n1` [2-{2-[1-(2-Methoxy-ethyl)-4-thiophen-2-yl-1H-imidazol-2-yl]-ethyl}-5,7-dimethyl-imidazo[1,2-a]pyrimidine], the IC50 came to 130 nM. Compared with the last compound, the IC50 is about 1.6-fold lower.
For `Cc1cccc2nc(/C=C/c3nc(-c4ccco4)cn3COCC[Si](C)(C)C)nn12` [2-{(E)-2-[4-Furan-2-yl-1-(2-trimethylsilanyl-ethoxymethyl)-1H-imidazol-2-yl]-vinyl}-5-methyl-[1,2,4]triazolo[1,5-a]pyridine] the value was 46 nM; for `Cc1cccc2nc(CCc3nc(-c4cccs4)cn3C[C@@H](O)CN(C)CCC#N)nn12` [3-[((S)-2-Hydroxy-3-{2-[2-(5-methyl-[1,2,4]triazolo[1,5-a]pyridin-2-yl)-ethyl]-4-thiophen-2-yl-imidazol-1-yl}-propyl)-methyl-amino]-propionitrile], 10000 nM; for `COc1ccc(C)n2nc(CCc3nc(-c4cccs4)cn3CCCC#N)nc12` [4-{2-[2-(8-Methoxy-5-methyl-[1,2,4]triazolo[1,5-a]pyridin-2-yl)-ethyl]-4-thiophen-2-yl-imidazol-1-yl}-butyronitrile], 1.7 nM.
Compound `Cc1cc(C)n2nc(CCc3nc(-c4cccnc4)cn3C)nc2n1` [5,7-Dimethyl-2-[2-(1-methyl-4-pyridin-3-yl-1H-imidazol-2-yl)-ethyl]-[1,2,4]triazolo[1,5-a]pyrimidine] showed an IC50 of 44 nM. This IC50 lies about 26-fold higher than the previous one.
Compound `Cc1cc(C)n2nc(CCc3nc(-c4cccs4)cn3C)nc2n1` [5,7-Dimethyl-2-[2-(1-methyl-4-thiophen-2-yl-1H-imidazol-2-yl)-ethyl]-[1,2,4]triazolo[1,5-a]pyrimidine] showed an IC50 of 4.2 nM.
For `Cc1cc(C)n2cc(CCc3nc(-c4cccs4)cn3C)nc2n1` [5,7-Dimethyl-2-[2-(1-methyl-4-thiophen-2-yl-1H-imidazol-2-yl)-ethyl]-imidazo[1,2-a]pyrimidine] the value was 45 nM; for `Cc1cc(C)n2cc(CCc3nc(-c4ccsc4)cn3C)nc2n1` [5,7-Dimethyl-2-[2-(1-methyl-4-thiophen-3-yl-1H-imidazol-2-yl)-ethyl]-imidazo[1,2-a]pyrimidine], 33 nM.
With `CCCn1cc(-c2cccs2)nc1CCc1cn2c(C)cc(C)nc2n1` [5,7-Dimethyl-2-[2-(1-propyl-4-thiophen-2-yl-1H-imidazol-2-yl)-ethyl]-imidazo[1,2-a]pyrimidine] the figure was 3.4 nM.
`Cc1cc(C)n2cc(/C=C/c3nc(-c4cnccn4)cn3C)nc2n1` [5,7-Dimethyl-2-[(E)-2-(1-methyl-4-pyrazin-2-yl-1H-imidazol-2-yl)-vinyl]-imidazo[1,2-a]pyrimidine] returned an IC50 of 340 nM.
`Cc1cc(C)n2cc(/C=C/c3nc(-c4cccnc4)cn3C)nc2n1` [5,7-Dimethyl-2-[(E)-2-(1-methyl-4-pyridin-3-yl-1H-imidazol-2-yl)-vinyl]-imidazo[1,2-a]pyrimidine] displayed a half-maximal inhibitory concentration (IC50) of 220 nM.
In turn, `Cc1cc(C)n2cc(/C=C/c3nc(-c4cscn4)cn3C)nc2n1` [5,7-Dimethyl-2-[(E)-2-(1-methyl-4-thiazol-4-yl-1H-imidazol-2-yl)-vinyl]-imidazo[1,2-a]pyrimidine] had an IC50 of 180 nM.
Turning to `Cc1cc(C)n2cc(/C=C/c3nc(-c4cncs4)cn3C)nc2n1` [5,7-Dimethyl-2-[(E)-2-(1-methyl-4-thiazol-5-yl-1H-imidazol-2-yl)-vinyl]-imidazo[1,2-a]pyrimidine], the midpoint of inhibition, the IC50, lay at 97 nM.
For `Cc1cc(C)n2cc(/C=C/c3nc(-c4cccs4)cn3C)nc2n1` [5,7-Dimethyl-2-[(E)-2-(1-methyl-4-thiophen-2-yl-1H-imidazol-2-yl)-vinyl]-imidazo[1,2-a]pyrimidine] the value was 8.8 nM; for `Cc1cc(C)n2cc(/C=C/c3nc(-c4ccsc4)cn3C)nc2n1` [5,7-Dimethyl-2-[(E)-2-(1-methyl-4-thiophen-3-yl-1H-imidazol-2-yl)-vinyl]-imidazo[1,2-a]pyrimidine], 56 nM.
The compound `Cc1cc(C)n2cc(CCc3nc(-c4cccs4)cn3CCN3CCOCC3)nc2n1` [5,7-Dimethyl-2-{2-[1-(2-morpholin-4-yl-ethyl)-4-thiophen-2-yl-1H-imidazol-2-yl]-ethyl}-imidazo[1,2-a]pyrimidine] yielded an IC50 of 36 nM.
For `Cc1cc(C)n2cc(CCc3nc(-c4cccs4)cn3CCC(C)C)nc2n1` [5,7-Dimethyl-2-{2-[1-(3-methyl-butyl)-4-thiophen-2-yl-1H-imidazol-2-yl]-ethyl}-imidazo[1,2-a]pyrimidine] the value was 6.8 nM.
